Experimental data as given in patent US7700728B2, “Use of chimeric receptors in a screening assay for identifying agonists and antagonists of cell receptors” (Schering Corporation, priority 2005, dated 2010).

Experiments:
[1] = system: PBMC; assay: Cytokine induction in PBMC; type: cell-based
[2] = biological target: T1, chimeric TLR3/CD32a receptor (Homo sapiens, UniProt O15455); assay: Calcium mobilization in U937 cells transiently transfected with pTLR3/CD32a; type: cell-based
T1 construct: expressed in transfected cells; host or cells: U937 cells, transiently or stably transfected with pTLR3/CD32a (pMET7 vector)
T1 sequence (O15455 with tags, fused parts or gaps): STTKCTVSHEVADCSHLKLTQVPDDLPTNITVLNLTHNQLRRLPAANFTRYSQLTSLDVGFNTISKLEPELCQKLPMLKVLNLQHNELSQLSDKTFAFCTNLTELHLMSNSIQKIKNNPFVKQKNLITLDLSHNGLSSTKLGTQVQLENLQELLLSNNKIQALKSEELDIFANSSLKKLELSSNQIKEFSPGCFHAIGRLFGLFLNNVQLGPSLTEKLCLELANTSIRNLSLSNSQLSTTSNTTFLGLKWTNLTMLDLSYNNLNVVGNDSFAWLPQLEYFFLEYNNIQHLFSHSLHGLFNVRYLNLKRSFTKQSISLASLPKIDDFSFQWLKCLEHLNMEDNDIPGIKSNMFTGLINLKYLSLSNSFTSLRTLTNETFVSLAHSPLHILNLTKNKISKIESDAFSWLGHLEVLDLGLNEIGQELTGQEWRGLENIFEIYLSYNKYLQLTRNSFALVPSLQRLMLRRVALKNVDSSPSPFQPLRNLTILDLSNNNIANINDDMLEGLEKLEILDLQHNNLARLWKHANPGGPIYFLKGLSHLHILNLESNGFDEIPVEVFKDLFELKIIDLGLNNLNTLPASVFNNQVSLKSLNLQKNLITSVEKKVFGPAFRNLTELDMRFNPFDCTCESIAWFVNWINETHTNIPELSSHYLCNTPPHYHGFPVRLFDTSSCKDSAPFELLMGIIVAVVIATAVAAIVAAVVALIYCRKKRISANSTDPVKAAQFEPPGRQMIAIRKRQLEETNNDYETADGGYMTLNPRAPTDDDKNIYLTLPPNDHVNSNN
From the text: (§1) The hematopoietic cell line U937 was used for further biological investigation because of the ability of this cell line to display calcium mobilization upon cross-linking of endogenous CD32a using anti-CD32a antibodies followed by secondary antibody (as detected by fluorimetry following loading of the cells with Indo-1 or Fluo-4). Thus, U937 cells express all of the cellular components required for calcium mobilization mediated through CD32a activation.
(§2) Transient transfection of the pTLR3/CD32a and pTLR2/CD32a expression vectors into U937 allowed high level cell surface expression of the chimeric molecule as detected with anti-TLR3 or anti-TLR2 antibodies, while no expression was observed on untransfected cells or cells transfected with the other chimeric vector.
Poly-IC, a synthetic double-stranded RNA ligand for TLR3, was then tested for its ability to stimulate the chimeric TLR3/CD32a receptor. Poly(I) (15, 30 and 40 mers) and poly(C) (15, 30 and 40 mers) (Ambion, Huntingdon, Cambridgeshire, U.K. and Invitrogen, Cergy Pontoise, France respectively) were annealed in equal proportions according to their size for 15 minutes at 95° C. Independently, fragmentation of high molecular weight poly-IC (>5000 bp) was performed by metal-induced hydrolysis as recommended by Affymetrix (High Wycombe, UK). Briefly, 200 μg poly-IC was incubated with 40 μl of 5×RNA fragmentation buffer (200 mM Tris-acetate, pH 8.1, 500 mM KOAc, 150 mM MgOAc) in a final volume of 200 μl, for 35 min at […]. Fragmented poly-IC (100-200 bp) was then allowed to reach room temperature before purification. The relative sizes of dsRNA fragments were examined by electrophoresis in 2% agarose gel.

[3] = biological target: T1, chimeric TLR3/CD32a receptor; assay: Effect of extracellular pH on calcium mobilization in U937 cells expressing chimeric TLR3/CD32a; type: cell-based; conditions: pH range 5.5-7.5
From the text: Wild type TLR3 has previously been described as an intracellular receptor, at least in dendritic cells (DC), and interaction with its ligand occurs in early endosomes. […] U937 cells expressing the chimeric human TLR3/CD32a receptor at the cell surface were used to investigate the effect of the extracellular pH on poly-IC-mediated calcium mobilization.

[4] = biological target: T1, chimeric TLR3/CD32a receptor; assay: Calcium mobilization in U937 clones stably transfected with pTLR3/CD32a; type: cell-based
From the text: U937 cells were stably transfected with pTLR3/CD32a using co-transfection with an antibiotic-encoding plasmid and antibiotic selection followed by limiting dilution cloning. Clones were selected based on their cell surface expression level of TLR3. […] These clones expand very easily (up to 10^9 cells) and can be maintained for several months in culture without losing the expression of the chimeric receptor. […] Such stable clones provide a useful method for high through-put screening of candidate agents for the identification of TLR agonists and antagonists.

[5] = system: chimeric TLR2/CD32a receptor; assay: Calcium mobilization in untransfected U937 cells or cells transfected with pTLR2/CD32a (specificity control); type: cell-based, human
From the text: as §1, §2

[6] = system: chimeric TLR3/CD32a receptor lacking two N-glycosylation sites (N196 and N247); assay: NFκB luciferase reporter in HEK 293 cells co-transfected with chimeric TLR3/CD32a lacking two N-glycosylation sites; type: cell-based, human
From the text: In order to determine the role of glycosylation in ligand recognition by TLR3, a chimeric TLR3/CD32a receptor lacking two N-glycosylation sites (N196 and N247 as numbered at Genbank Acc. No. NP_003256) was generated by site-directed mutagenesis and co-transfected into HEK 293 cells with a reporter plasmid containing concensus NFκB sites which, when activated, directs the expression of firefly luciferase.

chimeric TLR2/CD32a receptor, sequence (as listed by the source, change not shown): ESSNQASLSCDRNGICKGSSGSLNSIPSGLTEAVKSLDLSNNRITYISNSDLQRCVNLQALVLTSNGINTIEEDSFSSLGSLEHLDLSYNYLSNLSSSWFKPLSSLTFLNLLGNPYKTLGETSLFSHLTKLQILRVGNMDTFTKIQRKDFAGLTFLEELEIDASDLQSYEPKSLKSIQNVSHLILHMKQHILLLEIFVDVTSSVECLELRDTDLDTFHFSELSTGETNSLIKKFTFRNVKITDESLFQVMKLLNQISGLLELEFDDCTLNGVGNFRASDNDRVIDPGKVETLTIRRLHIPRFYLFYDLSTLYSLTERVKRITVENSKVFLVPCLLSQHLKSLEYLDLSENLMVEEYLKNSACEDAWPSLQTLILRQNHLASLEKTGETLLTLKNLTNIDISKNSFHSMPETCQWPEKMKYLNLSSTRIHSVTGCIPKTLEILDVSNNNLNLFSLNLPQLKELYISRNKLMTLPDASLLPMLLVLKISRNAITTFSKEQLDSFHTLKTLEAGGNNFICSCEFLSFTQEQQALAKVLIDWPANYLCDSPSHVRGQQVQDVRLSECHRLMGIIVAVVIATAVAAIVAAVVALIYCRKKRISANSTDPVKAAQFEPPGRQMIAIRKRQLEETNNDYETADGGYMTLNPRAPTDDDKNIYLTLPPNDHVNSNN

dose required to detect biological response (calcium mobilization) ([2]; dose response, transiently transfected U937): 0.025 μg/ml | pH required for optimal response (calcium mobilization) [3]: 6.5 | pH that prevented biological response (calcium mobilization) [3]: ≥ 7.2 | sensitivity in dose response (calcium mobilization) ([4]; stable U937 clones): 10 to 30 ng/mL | calcium mobilization ([4]; stable U937 clones with cell surface expression of the chimeric receptor): robust calcium mobilization
Substance: poly-IC
dose required to detect cytokine induction [1]: 2.5 µg/mL | calcium mobilization ([2]; U937 transiently transfected with pTLR3/CD32a, fluorimetry with Indo-1 or Fluo-4): immediate calcium mobilization of similar intensity to that induced by anti-TLR antibodies | response to a second stimulation after sequential stimulation ([2]; optimal concentration, second stimulation with poly-IC or anti-TLR3-mediated cross-linking): desensitization | calcium mobilization [5]: no calcium mobilization | activity on mutant TLR3 (NFκB luciferase reporter) [6]: completely inactive
